In patent US12084426B2, “Indazole carboxamides as kinase inhibitors” (BRISTOL-MYERS SQUIBB COMPANY, priority 2018, dated 2024) one finds IC50 data, which are given here for 26 compounds.

By IC50 is commonly meant the concentration that inhibits the measured activity by half.

The test system of one assay is MLKL phosphorylation in HT29-L23 human colorectal adenocarcinoma cells. Briefly: MLKL Phosphorylation High-Content Assay. It is filed as cell-based. As to conditions: Homo sapiens, 6 h, necroptosis induced with TNFα, SMAC mimetic and Z-VAD, read-out: pMLKL (IC50). The method, then:
MLKL Phosphorylation High-Content Assay
HT29-L23 human colorectal adenocarcinoma cells were maintained in RPMI 1640 medium containing 10% heat-inactivated FBS, 1% Penicillin-Streptomycin and 10 mM HEPES. Cells were seeded at 2,000 cells/well in 384 well tissue culture-treated microplates (Greiner #781090-3B) and incubated at 37° C. (5% CO2/95% O2) for 2 d. On the day of the assay, the cells were treated with test compounds at final concentrations of 6.25 to 0.106 μM for 30 min at 37° C. (5% CO2/95% O2). Necroptosis was induced using a mixture of human TNFα (35 ng/mL) (Peprotech #300-01A), SMAC mimetic (from US 2015/0322111 A1) (700 nM) and Z-VAD (140 nM) (BD pharmingen #51-6936). Following 6 h incubation at 37° C. (5% CO2/95% O2), the cells were fixed with 4% formaldehyde (ACROS 11969-0010) for 15 min at rt, then permeabilized with phosphate buffered saline (PBS) containing 0.2% Triton-X-100 for 10 min. MLKL phosphorylation was detected using anti-MLKL (phospho S358) antibody (Abcam #ab187091) (1:1000 dilution in Blocking Buffer [PBS supplemented with 0.1% BSA]) with ON incubation at 4° C. After washing three times in PBS, goat anti-rabbit Alexa-488 (1:1000 dilution) (Life Technologies, A11008) and Hoechst 33342 (Life Technologies, H3570) (1:2000 dilution) in Blocking Buffer were added for 1 h at rt. Following another three cycles of washes in PBS, the microplates were sealed, and cellular images were acquired in the Cellomics ArrayScan VTI high-content imager equipped with an X1 camera. Fluorescent images were taken using a 10× objective and the 386-23 BGRFRN_BGRFRN and 485-20 BGRFRN_BGRFRN filter sets, for nuclei and MLKL phosphorylation, respectively. The image sets were analyzed using the Compartmental Analysis Bioapplication software (Cellomics). The level of MLKL phosphorylation was quantified as MEAN_CircRingAvgIntenRatio. The maximal inhibitory response was defined by the activity induced by Necls (CAS #: 852391-15-2, 6.25 μM). The IC50 value was defined as the concentration of compound that produces 50% of the maximal inhibition. The data were fitted using the 4-parameter logistic equation to calculate the IC50 and Ymax values.
Turning to `CNC(=O)c1n[nH]c2cc(N3CCCC(C(=O)NCc4ccccc4Oc4ccccc4)C3)ccc12` (racemic) [Example 8, N-methyl-6-(3-{ [(2-phenoxyphenyl)methyl]carbamoyl}piperidin-1-yl)-1H-indazole-3-carboxamide], the IC50 amounted to 110 nM.

With `CNC(=O)c1n[nH]c2cc(N3CCCC(C(=O)NCCCOC4CCCCC4)C3)ccc12` (racemic) [Example 9, 6-(3-{[3-(cyclohexyloxy)propyl]carbamoyl}piperidin-1-yl)-N-methyl-1H-indazole-3-carboxamide], the IC50 is 3500 nM.

With `CNC(=O)c1n[nH]c2cc(N3CCCC(C(=O)NCc4ccccc4OCC4CC4)C3)ccc12` (racemic) [Example 12, 6-[3-({[2-(cyclopropylmethoxy)phenyl]methyl}carbamoyl)piperidin-1-yl]-N-methyl-1H-indazole-3-carboxamide], the IC50 came out at 290 nM.

`CNC(=O)c1n[nH]c2cc(N3CCOC(C(=O)Nc4cnn(Cc5ccccc5)c4)C3)ccc12` (racemic) [Example 21, 6-{2-[(1-benzyl-1H-pyrazol-4-yl)carbamoyl]morpholin-4-yl}-N-methyl-1H-indazole-3-carboxamide]: the half-maximal inhibitory concentration (IC50) stood at 1200 nM.

Take `CNC(=O)c1n[nH]c2cc(N3CCCC(C(=O)NCC(O)COc4ccccc4)C3)ccc12` (single isomer, unassigned) [Example 6, 6-{3-[(2-hydroxy-3-phenoxypropyl)carbamoyl]piperidin-1-yl}-N-methyl-1H-indazole-3-carboxamide]: the IC50 was determined as 4300 nM.

With `CNC(=O)c1n[nH]c2cc(N3CCCC(C(=O)NC4CCCC(c5ccccc5)C4)C3)ccc12` (single isomer, unassigned) [Example 15, N-methyl-6-{3-[(3-phenylcyclohexyl)carbamoyl]piperidin-1-yl}-1H-indazole-3-carboxamide], the IC50 was 1900 nM.

Regarding `CNC(=O)c1n[nH]c2cc(N3CCCC(C(=O)NCc4ccccc4OC(F)(F)F)C3)ccc12` (centres unmarked) [Example 1, N-methyl-6-[3-({[2-(trifluoromethoxy)phenyl]methyl}carbamoyl)piperidin-1-yl]-1H-indazole-3-carboxamide], the IC50 is 660 nM.

`CNC(=O)c1n[nH]c2cc(N3CCN(C)C(C(=O)NCc4ccccc4OC)C3)ccc12` (centres unmarked) [Example 2, 6-(3-{[(2-methoxyphenyl)methyl]carbamoyl}-4-methylpiperazin-1-yl)-N-methyl-1H-indazole-3-carboxamide]: the IC50 is over 6200 nM.

Regarding `CNC(=O)c1n[nH]c2cc(N3CCOC(C(=O)NCCC(O)c4ccc(F)c(F)c4)C3)ccc12` (centres unmarked) [Example 3, 6-(2-{[3-(3,4-difluorophenyl)-3-hydroxypropyl]carbamoyl}morpholin-4-yl)-N-methyl-1H-indazole-3-carboxamide], the IC50 stood at 4300 nM.

Turning to `CNC(=O)c1n[nH]c2cc(N3CCNC(C(=O)NCCC(C)c4ccccc4)C3)ccc12` (centres unmarked) [Example 4, N-methyl-6-{3-[(3-phenylbutyl)carbamoyl]piperazin-1-yl}-1H-indazole-3-carboxamide], the IC50 was determined as 3200 nM.

`CNC(=O)c1n[nH]c2cc(C3CCCN(C(=O)NCCC(C)c4ccccc4)C3)ccc12` (centres unmarked) [Example 5, N-methyl-6-{1-[(3-phenylbutyl)carbamoyl]piperidin-3-yl}-1H-indazole-3-carboxamide]: the 50% inhibitory concentration (IC50) is 190 nM.

`CNC(=O)c1n[nH]c2cc(N3CCCC(C(=O)NCCC(O)c4ccccc4)C3)ccc12` (centres unmarked) [Example 10, 6-{3-[(3-hydroxy-3-phenylpropyl)carbamoyl]piperidin-1-yl}-N-methyl-1H-indazole-3-carboxamide]: the 50% inhibitory concentration (IC50) was found to be 3600 nM.

As for `CNC(=O)c1n[nH]c2cc(N3CCCC(C(=O)NCCC(O)c4ccc(F)c(F)c4)C3)ccc12` (centres unmarked) [Example 14, 6-(3-{[3-(3,4-difluorophenyl)-3-hydroxypropyl]carbamoyl}piperidin-1-yl)-N-methyl-1H-indazole-3-carboxamide], the IC50 was determined as 2400 nM.

As to `CNC(=O)c1n[nH]c2cc(N3CCCC(C(=O)NCCC(C)c4ccccc4)C3)ccc12` (centres unmarked) [Example 17, N-methyl-6-{3-[(3-phenylbutyl)carbamoyl]piperidin-1-yl}-1H-indazole-3-carboxamide], the half-maximal inhibitory concentration (IC50) was 200 nM.

On to `CNC(=O)c1n[nH]c2cc(N3CCN(C)C(C(=O)NCCC(O)c4ccccc4)C3)ccc12` (centres unmarked) [Example 18, 6 6-{3-[(3-hydroxy-3-phenylpropyl)carbamoyl]-4-methylpiperazin-1-yl}-N-methyl-1H-indazole-3-carboxamide], for which the IC50 worked out at 2400 nM.

`CNC(=O)c1n[nH]c2cc(N3CCN(C)C(C(=O)NCCC(C)c4ccc(F)cc4)C3)ccc12` (centres unmarked) [Example 19, 6-(3-{[3-(4-fluorophenyl)butyl]carbamoyl}-4-methylpiperazin-1-yl)-N-methyl-1H-indazole-3-carboxamide]: the IC50 worked out at 690 nM.

On to `CNC(=O)c1n[nH]c2cc(N3CCN(C)C(C(=O)NCCC(C)c4ccccc4)C3)ccc12` (centres unmarked) [Example 20, N-methyl-6-{4-methyl-3-[(3-phenylbutyl)carbamoyl]piperazin-1-yl}-1H-indazole-3-carboxamide], for which the concentration for half-maximal inhibition (IC50) amounted to 2300 nM.

With `CNC(=O)c1n[nH]c2cc(N3CCOC(C(=O)NCCC(C)c4ccccc4)C3)ccc12` (centres unmarked) [Example 22, N-methyl-6-{2-[(3-phenylbutyl)carbamoyl]morpholin-4-yl}-1H-indazole-3-carboxamide], the IC50 is 440 nM.

Turning to `CNC(=O)c1n[nH]c2cc(N3CCOC(C(=O)NCC4CC4c4cccc(F)c4)C3)ccc12` (centres unmarked) [Example 23], the IC50 was found to be 1600 nM.

`CNC(=O)c1n[nH]c2cc(N3CCOC(C(=O)NCCC(C)c4ccc(F)cc4)C3)ccc12` (centres unmarked) [Example 24, 6-(2-{[3-(4-fluorophenyl)butyl]carbamoyl}morpholin-4-yl)-N-methyl-1H-indazole-3-carboxamide]: the IC50 is 110 nM.

As for `CNC(=O)c1n[nH]c2cc(N3CCOC(C(=O)NCCC(O)c4ccc(Cl)cc4)C3)ccc12` (centres unmarked) [Example 25, 6-(2-{[3-(4-chlorophenyl)-3-hydroxypropyl]carbamoyl}morpholin-4-yl)-N-methyl-1H-indazole-3-carboxamide], the IC50 was found to be 4500 nM.

For `CNC(=O)c1n[nH]c2cc(N3CCOC(C(=O)NC4CCCC(c5ccccc5)C4)C3)ccc12` (centres unmarked) [Example 26, N-methyl-6-{2-[(3-phenylcyclohexyl)carbamoyl]morpholin-4-yl}-1H-indazole-3-carboxamide], the IC50 is 2500 nM.

The same assay, now with this note: necroptosis induced with TNFα, SMAC mimetic and Z-VAD, 6 h, read-out: pMLKL (IC50).
For the compound `CNC(=O)c1n[nH]c2cc(N3CCCC(C(=O)NC4CCCC(c5ccccc5)C4)C3)ccc12` (racemic) [Example 16, N-methyl-6-{3-[(3-phenylcyclohexyl)carbamoyl]piperidin-1-yl}-1H-indazole-3-carboxamide], the IC50 stood at 3100 nM.

`CNC(=O)c1n[nH]c2cc(N3CCCC(C(=O)NCC(O)COc4ccccc4)C3)ccc12` (single isomer, unassigned) [Example 7, 6-{3-[(2-hydroxy-3-phenoxypropyl)carbamoyl]piperidin-1-yl}-N-methyl-1H-indazole-3-carboxamide]: the IC50 was 2200 nM.

On to `CNC(=O)c1n[nH]c2cc(N3CCCC(C(=O)Nc4cnn(Cc5ccccc5)c4)C3)ccc12` (centres unmarked) [Example 11, 6-{3-[(1-benzyl-1H-pyrazol-4-yl)carbamoyl]piperidin-1-yl}-N-methyl-1H-indazole-3-carboxamide], for which the IC50 came to 2500 nM.

As to `CNC(=O)c1n[nH]c2cc(N3CCCC(C(=O)NCCCOc4ccc(F)cc4)C3)ccc12` (centres unmarked) [Example 13, 6-(3-{[3-(4-fluorophenoxy)propyl]carbamoyl}piperidin-1-yl)-N-methyl-1H-indazole-3-carboxamide], the concentration for half-maximal inhibition (IC50) amounted to 3200 nM.
